Measurements published in patent US20120009280A1, “METHOD OF REDUCING THE RATE OF DEGRADATION OF A BIOLOGICAL MATERIAL” (Bio-Energy Ingredients Limited, priority 2009, published 2012).

How the values were obtained:
total micro-organism = test: Total microbial (plate) count of spent brewer's / wet distiller's grains stored at ambient temperature; type: cell-based
Summary of the method: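 Spent brewer's grains taken from a brewery discharge line were mixed at the laboratory and treated with powdered commercial calcium oxide containing approximately 94% CaO. Each batch was kept under insect-proof screens at ambient temperature, with no further treatment or agitation. Samples were drawn every seven days, and the entire sample was sent to a microbiological testing facility for total microbial counts.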

yeast = test: Yeast count of spent brewer's / wet distiller's grains stored at ambient temperature; type: cell-based
[1] = dose 10% w/w, partially de-watered wet distiller's grains, Example 8

Compound `[Ca+2].[OH-].[OH-]` [(CaOH)2 powder] has a Total plate count (total micro-organism; dose 3.3% (w/w), week 0) of 60 cfu/gram, a Total plate count (total micro-organism; dose 3.3% (w/w), week 1) of 12100 cfu/gram and a Total plate count (total micro-organism; dose 3.3% (w/w), week 4) of 1750 cfu/gram. The Total plate count (total micro-organism; dose 3.3% (w/w), week 5) was 20 cfu/gram, the Total plate count (total micro-organism; dose 3.3% (w/w), week 6) was <10 cfu/gram and the Total plate count (total micro-organism; dose 3.3% (w/w), week 7) was 101000 cfu/gram. It also gave a Total plate count (total micro-organism; dose 3.3% (w/w), week 8) of 3.20E+06 cfu/gram, a Total plate count (total micro-organism; dose 6.6% (w/w), week 0) of 70 cfu/gram and a Total plate count (total micro-organism; dose 6.6% (w/w), week 1) of 50 cfu/gram. It also gave a Total plate count (total micro-organism; dose 6.6% (w/w), week 2) of 160 cfu/gram, a Total plate count (total micro-organism; dose 6.6% (w/w), week 3) of 1550 cfu/gram and a Total plate count (total micro-organism; dose 6.6% (w/w), week 4) of 290 cfu/gram. For the same compound, the Total plate count (total micro-organism; dose 6.6% (w/w), week 5) was <10 cfu/gram, the Total plate count (total micro-organism; dose 6.6% (w/w), week 6) was <10 cfu/gram and the Total plate count (total micro-organism; dose 6.6% (w/w), week 7) was 5000 cfu/gram. The Total plate count (total micro-organism; dose 6.6% (w/w), week 8) was 960000 cfu/gram, the Total plate count (total micro-organism; dose 6.6% (w/w), week 9) was 1.24E+06 cfu/gram and the “Yeast Count” value (yeast; dose 3.3% (w/w), week 0) was <10 cfu/gram. The “Yeast Count” value (yeast; dose 3.3% (w/w), week 1) was <10 cfu/gram, the “Yeast Count” value (yeast; dose 3.3% (w/w), week 2) was <10 cfu/gram and the “Yeast Count” value (yeast; dose 3.3% (w/w), week 3) was <10 cfu/gram. For the same compound, the “Yeast Count” value (yeast; dose 3.3% (w/w), week 4) was <10 cfu/gram, the “Yeast Count” value (yeast; dose 3.3% (w/w), week 5) was <10 cfu/gram and the “Yeast Count” value (yeast; dose 3.3% (w/w), week 6) was <10 cfu/gram. The “Yeast Count” value (yeast; dose 3.3% (w/w), week 7) was <10 cfu/gram, the “Yeast Count” value (yeast; dose 6.6% (w/w), week 0) was <10 cfu/gram and the “Yeast Count” value (yeast; dose 6.6% (w/w), week 1) was <10 cfu/gram. The “Yeast Count” value (yeast; dose 6.6% (w/w), week 3) was <10 cfu/gram, the “Yeast Count” value (yeast; dose 6.6% (w/w), week 4) was <10 cfu/gram and the “Yeast Count” value (yeast; dose 6.6% (w/w), week 5) was <10 cfu/gram. The “Yeast Count” value (yeast; dose 6.6% (w/w), week 6) was <10 cfu/gram, the “Yeast Count” value (yeast; dose 6.6% (w/w), week 7) was <10 cfu/gram and the “Yeast Count” value (yeast; dose 6.6% (w/w), week 8) was <10 cfu/gram. For the same compound, the “Yeast Count” value (yeast; dose 6.6% (w/w), week 9) was <10 cfu/gram.

`[Ca+2].[O-]CC(O)CO.[O-]CC(O)CO` [Ca-DGO granules] showed a Total plate count (total micro-organism; dose 10% (w/w), week 0) of 80 cfu/gram, a Total plate count (total micro-organism; dose 10% (w/w), week 1) of 510 cfu/gram and a Total plate count (total micro-organism; dose 10% (w/w), week 2) of 3500 cfu/gram. For the same compound, the Total plate count (total micro-organism; dose 10% (w/w), week 4) was 30 cfu/gram, the Total plate count (total micro-organism; dose 10% (w/w), week 6) was 5400 cfu/gram and the Total plate count (total micro-organism; dose 10% (w/w), week 8) was 410000 cfu/gram. The Total plate count (total micro-organism; dose 10% (w/w), week 9) was 480000 cfu/gram, the Total plate count (total micro-organism; dose 15% (w/w), week 0) was 180 cfu/gram and the Total plate count (total micro-organism; dose 15% (w/w), week 1) was 150 cfu/gram. It also gave a Total plate count (total micro-organism; dose 15% (w/w), week 4) of 70 cfu/gram, a Total plate count (total micro-organism; dose 15% (w/w), week 5) of 650 cfu/gram and a Total plate count (total micro-organism; dose 15% (w/w), week 6) of 120 cfu/gram. It also gave a Total plate count (total micro-organism; dose 15% (w/w), week 7) of 700 cfu/gram, a Total plate count (total micro-organism; dose 15% (w/w), week 8) of 270 cfu/gram and a Total plate count (total micro-organism; dose 15% (w/w), week 9) of 150 cfu/gram. The “Yeast Count” value (yeast; dose 10% (w/w), week 0) was <10 cfu/gram, the “Yeast Count” value (yeast; dose 10% (w/w), week 1) was <10 cfu/gram and the “Yeast Count” value (yeast; dose 10% (w/w), week 2) was <10 cfu/gram. The “Yeast Count” value (yeast; dose 10% (w/w), week 7) was <10 cfu/gram, the “Yeast Count” value (yeast; dose 10% (w/w), week 8) was <10 cfu/gram and the “Yeast Count” value (yeast; dose 15% (w/w), week 0) was <10 cfu/gram. For the same compound, the “Yeast Count” value (yeast; dose 15% (w/w), week 1) was <10 cfu/gram, the “Yeast Count” value (yeast; dose 15% (w/w), week 2) was <10 cfu/gram and the “Yeast Count” value (yeast; dose 15% (w/w), week 3) was <10 cfu/gram. The “Yeast Count” value (yeast; dose 15% (w/w), week 4) was <10 cfu/gram, the “Yeast Count” value (yeast; dose 15% (w/w), week 5) was 30 cfu/gram and the “Yeast Count” value (yeast; dose 15% (w/w), week 6) was <10 cfu/gram. For the same compound, the “Yeast Count” value (yeast; dose 15% (w/w), week 7) was <10 cfu/gram, the “Yeast Count” value (yeast; dose 15% (w/w), week 8) was <10 cfu/gram and the “Yeast Count” value (yeast; dose 15% (w/w), week 9) was <10 cfu/gram.

With `[Ca+2].[O-2]` [CaO powder] the Total plate count (total micro-organism; dose 5% (w/w), week 0) was 640 cfu/gram, the Total plate count (total micro-organism; dose 5% (w/w), week 1) was 1800 cfu/gram and the Total plate count (total micro-organism; dose 5% (w/w), week 2) was 280 cfu/gram. For the same compound, the Total plate count (total micro-organism; dose 5% (w/w), week 3) was 210 cfu/gram, the Total plate count (total micro-organism; dose 5% (w/w), week 4) was <10 cfu/gram and the Total plate count (total micro-organism; dose 5% (w/w), week 6) was 40 cfu/gram. For the same compound, the Total plate count (total micro-organism; dose 5% (w/w), week 7) was 900 cfu/gram, the Total plate count (total micro-organism; dose 5% (w/w), week 8) was 120 cfu/gram and the Total plate count (total micro-organism; dose 5% (w/w), week 9) was 20 cfu/gram. The Total plate count (total micro-organism; dose 10% (w/w), week 0) was 100 cfu/gram, the Total plate count (total micro-organism; dose 10% (w/w), week 1) was 310 cfu/gram and the Total plate count (total micro-organism; dose 10% (w/w), week 2) was 150 cfu/gram. The Total plate count (total micro-organism; dose 10% (w/w), week 3) was 40 cfu/gram, the Total plate count (total micro-organism; dose 10% (w/w), week 4) was 20 cfu/gram and the Total plate count (total micro-organism; dose 10% (w/w), week 6) was <10 cfu/gram. For the same compound, the Total plate count (total micro-organism; dose 10% (w/w), week 7) was 300 cfu/gram, the Total plate count (total micro-organism; dose 10% (w/w), week 8) was 80 cfu/gram and the Total plate count (total micro-organism; dose 10% (w/w), week 9) was <10 cfu/gram. The “minimum preservation time with total microbial counts <60 cfu/g” value (total micro-organism; [1]) was 2 weeks, the “minimum preservation time with total microbial counts <1000 cfu/g” value (total micro-organism; [1]) was “≧1 year” and the “Yeast Count” value (yeast; dose 5% (w/w), week 0) was <10 cfu/gram. For the same compound, the “Yeast Count” value (yeast; dose 5% (w/w), week 1) was <10 cfu/gram, the “Yeast Count” value (yeast; dose 5% (w/w), week 2) was <10 cfu/gram and the “Yeast Count” value (yeast; dose 5% (w/w), week 3) was <10 cfu/gram. For the same compound, the “Yeast Count” value (yeast; dose 5% (w/w), week 4) was <10 cfu/gram, the “Yeast Count” value (yeast; dose 5% (w/w), week 5) was <10 cfu/gram and the “Yeast Count” value (yeast; dose 5% (w/w), week 6) was <10 cfu/gram. The “Yeast Count” value (yeast; dose 5% (w/w), week 7) was <10 cfu/gram, the “Yeast Count” value (yeast; dose 5% (w/w), week 8) was <10 cfu/gram and the “Yeast Count” value (yeast; dose 5% (w/w), week 9) was <10 cfu/gram. For the same compound, the “Yeast Count” value (yeast; dose 10% (w/w), week 0) was <10 cfu/gram, the “Yeast Count” value (yeast; dose 10% (w/w), week 1) was <10 cfu/gram and the “Yeast Count” value (yeast; dose 10% (w/w), week 2) was <10 cfu/gram. The “Yeast Count” value (yeast; dose 10% (w/w), week 7) was <10 cfu/gram and the “Yeast Count” value (yeast; dose 10% (w/w), week 8) was <10 cfu/gram.
